Results published in PubChem BioAssay (NCI).
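Five compound concentrations were applied to cells in 96-well plates for 48 hours; endpoints were derived by simple linear interpolation of the resulting dose-response curve. Abbreviation: GI50, concentration required for 50% inhibition of growth. Definition used: TGI = concentration required for complete inhibition of growth.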

Assays:
Assay in all cases: inhibition of tumour cell growth, NCI panel, 48 h
[1] = system: UACC-62 melanoma
[2] = system: SF-295 CNS
[3] = system: SK-MEL-2 melanoma
[4] = system: RXF 393 renal
[5] = system: HCT-116 colon
[6] = system: K-562 leukemia
[7] = system: MALME-3M melanoma
[8] = system: NCI-H23 lung
[9] = system: IGROV1 ovarian
[10] = system: KM12 colon

SMILES	GI50 [1] [µM]	TGI [1] [µM]	GI50 [2] [µM]	TGI [2] [µM]	GI50 [3] [µM]	TGI [3] [µM]	GI50 [4] [µM]	TGI [4] [µM]	GI50 [5] [µM]	TGI [5] [µM]	GI50 [6] [µM]	TGI [6] [µM]	GI50 [7] [µM]	TGI [7] [µM]	GI50 [8] [µM]	TGI [8] [µM]	GI50 [9] [µM]	TGI [9] [µM]	GI50 [10] [µM]	TGI [10] [µM]
CCC(Sc1nnc2c3ccccc3n(CC)c2n1)C(=O)Nc1ccccc1OC (centres undefined)	> 100	> 100	> 100	> 100	> 100	> 100	64	> 100	48.5	> 100	> 100	> 100	> 100	> 100	3.41	> 100	> 93.8	> 100	91.3	> 100
CN1CCN(c2ccc3c4c(cccc24)C(=O)N(CCN2CCN(CCCN4CCN(CCN5C(=O)c6cccc7c(N8CCN(C)CC8)ccc(c67)C5=O)CC4)CC2)C3=O)CC1	8.45	15.7	5.75	13.7	–	–	5.4	12	1.23	5.79	–	–	8.36	19.8	7.08	13.8	–	–	4.34	14.1
Cn1c(=O)cc2c3c(c(NCCCO)ccc31)C(=O)c1ccccc1-2	2.45	> 100	1.76	> 100	6.85	> 100	8.64	> 100	0.491	> 100	2.09	64.3	2.12	7.35	3.37	> 100	4.98	> 100	6.34	> 100
COc1cnc2c(c1)C(=O)c1c-2n(CCCn2ccnc2)c(=O)c2cc(Cl)ccc12	0.0283	0.204	0.0251	0.0794	0.574	14.3	0.0407	0.235	0.0147	0.216	0.0347	> 100	0.293	37.4	0.0382	0.505	–	–	0.238	> 100
CCCNCc1nc2ccc(Br)cc2c(=O)n1CCC	–	19.8	–	30.6	–	25.2	–	29.1	–	21.5	–	> 100	–	26.4	–	26.2	–	29.7	–	29.3
CCC[C@H](N[C@@H]1CCc2cc(F)cc(F)c2C1)C(=O)Nc1cn(C(C)(C)CNCC(C)(C)C)cn1	15.6	34.1	15.4	42.5	16.1	35.4	6.12	21.1	5.31	20.2	8.33	> 89.2	13.4	28.2	17.3	> 89.9	28.6	> 100	24.1	> 88.7
N=C(N)SCCc1cn2ccccc2n1	–	–	–	> 100	–	> 100	–	–	–	> 100	–	> 100	–	> 100	–	> 100	–	–	–	> 100
CC1=CC(C)(C)N=C2SC(c3ccc(Cl)cc3)=NN12	–	> 100	–	> 100	–	> 100	–	–	–	–	–	> 100	–	75.6	–	81.5	–	> 100	–	> 100
O=[N+]([O-])c1ccccc1N=Nc1c(O)[nH]c2ccccc12	–	> 100	–	> 100	–	> 100	–	> 74.9	–	> 54.2	–	> 100	–	–	–	35.9	–	> 39.9	–	> 100
CC(C)=CCc1c(O)cc(/C=C/c2cc(O)c3c(c2)C[C@@H]2C(C)(C)[C@H](O)[C@H](O)C[C@@]2(C)O3)cc1O	0.0462	0.325	< 0.001	0.00118	0.0444	–	< 0.001	–	0.00519	> 10	0.0154	> 9.25	1.21	6.51	1.51	7.68	1.25	> 10	0.59	4.11
CO[C@@H]1[C@@H](OC2OC(C)C(OC3CC(C)(O)C(OC(=O)CC(C)C)C(C)O3)C(N(C)C)C2O)[C@@H](CC=O)C[C@@H](C)C(=O)/C=C/C2O[C@H]2C[C@@H](C)OC(=O)C[C@H]1OC(C)=O (some centres undefined)	–	60.1	–	48.2	–	43.7	–	64.7	–	30.8	–	39.8	–	27.9	–	45.8	–	61	–	32.2
CC(C)C(=O)N[C@@H](C)C(=O)N(Cc1ccc2ccccc2c1)N=O	–	> 100	–	> 100	–	> 100	–	–	–	> 100	–	> 100	–	> 100	–	–	–	> 100	–	–
CCc1c2c(nc3cc4c(cc13)OCO4)-c1cc3c(c(=O)n1C2)COC(=O)[C@@]3(CC)OC(=O)CN	< 0.022	–	< 0.01	< 0.0166	0.0954	0.998	< 0.01	< 0.0324	0.0214	0.0666	< 0.01	5.65	< 0.015	1.43	< 0.01	< 0.0158	–	–	< 0.0143	0.309
CCCCCCCCCCCC(=O)OCC1OC(n2cc(F)c(=O)[nH]c2=O)C(N)C(OC(=O)CCCCCCCCCCC)C1O (centres undefined)	–	> 100	–	> 100	–	> 100	–	> 100	–	> 100	–	> 100	–	> 100	–	> 100	–	–	–	> 100
CC1(O)CC2C(CC1SCCO)C2(C)C (centres undefined)	–	–	–	> 100	–	> 100	–	–	–	> 100	–	> 100	–	> 100	–	> 100	–	> 100	–	> 100
Nc1ccc(Nc2nc(F)nc(-c3c4ccccc4c4n3CCS4)n2)cc1	–	–	–	33.7	–	29.3	–	43.3	–	28	–	–	–	31.6	–	32.7	–	29.9	–	26.5
COc1cc(CSc2nc3ccc(C)cc3c(=O)n2Cc2ccccc2)cc(OC)c1OC	2.03	35.7	–	–	4.05	43.1	2.29	9.75	2.08	48.9	0.624	> 100	3.09	34.3	4.4	> 100	3.47	> 100	1.08	> 100
COc1ccc(C(c2ccc(C(C)C)cc(=O)c2O)c2c(O)cc3oc(-c4ccccc4)cc(=O)c3c2O)cc1 (centres undefined)	–	42.9	–	16.7	–	–	–	34.2	–	–	–	64.3	–	–	–	55.7	–	24.4	–	–
C=CC1CC12C(=O)C1OC2(C)C2C(=O)c3c(ccc4c3ccc3ccccc34)C(=O)C12 (centres undefined)	–	–	–	–	> 100	> 100	25	83	52.6	> 100	26.1	> 100	16.8	> 100	37.3	> 100	–	–	13.1	> 100

SMILES	GI50 [1] [µM]	TGI [1] [µM]	GI50 [2] [µM]	TGI [2] [µM]	GI50 [3] [µM]	TGI [3] [µM]	GI50 [4] [µM]	TGI [4] [µM]	GI50 [5] [µM]	TGI [5] [µM]	GI50 [6] [µM]	TGI [6] [µM]	GI50 [7] [µM]	TGI [7] [µM]	GI50 [8] [µM]	TGI [8] [µM]	GI50 [9] [µM]	TGI [9] [µM]	GI50 [10] [µM]	TGI [10] [µM]
Cc1c(C(=O)/C=C/c2ccc(Cl)cc2)[n+](=O)c2ccccc2n1[O-]	–	26.8	–	27.1	–	–	–	17.9	–	18.5	–	52.9	–	38.1	–	22.2	–	39.4	–	22.7
COc1ccc2[nH]cc(-c3nc(-c4cn(C)c5ccncc45)cs3)c2c1	18.5	37.5	12.3	25.7	15.8	30.1	1.83	3.34	1.77	3.21	–	–	2.11	3.65	2.12	4.12	1.93	3.54	1.87	3.52
COC(CCP(=O)(c1ccccc1)c1ccccc1)(C(=O)c1ccccc1)c1ccccc1 (centres undefined)	2.39	15.1	0.135	1.49	–	–	0.213	0.917	4.48	16.5	–	–	2.78	15.4	4.5	17.8	8.06	25.4	3.06	13.4
COc1cc(OC)c2c(=O)c(O)c(-c3ccc(OC)c(OC)c3)oc2c1	–	> 31.6	–	38.1	–	–	–	56.6	–	> 100	–	> 100	–	> 31.6	–	> 100	–	> 31.6	–	> 100
C(=C\c1csnn1)/c1cccnc1	–	–	–	> 100	–	> 100	–	> 100	–	> 100	–	> 100	–	> 100	–	> 100	–	–	–	> 100
Cn1c(CCC#N)nc2ccc(Br)cc2c1=O	–	> 100	–	> 100	–	> 100	–	> 100	–	–	–	> 100	–	> 100	–	> 100	–	> 100	–	> 100
O=C(Nc1c(-c2nc3ccccc3[nH]2)sc(=S)n1-c1ccccc1)c1ccccc1	–	> 100	–	> 100	–	> 100	–	> 100	–	–	–	> 100	–	> 100	–	> 100	–	> 100	–	> 100
O=C(CCC(=O)Nc1ccc(Cl)cc1)CC(=O)c1ccc(F)cc1	–	> 100	–	> 100	–	> 100	–	–	–	> 100	–	> 100	–	> 100	–	> 100	–	> 100	–	> 100
Cc1ccc(NC(=O)/C(CC(=O)c2c[n+](=O)c3ccccc3n2O)=N\NC(=O)C[n+]2ccccc2)cc1	–	> 100	–	> 100	–	> 100	–	> 100	–	> 100	–	> 100	–	> 100	–	–	–	> 100	–	> 100
COc1cccc(/C=N\Nc2ccc([N+](=O)[O-])cn2)c1O	2.47	8.9	–	–	9.69	54.4	2.79	12.7	3.04	15.2	3.12	> 100	4.11	36	2.92	14.9	1.91	13.5	6.04	51.5
COc1ccc2c3c1C(=O)CCC3CO2 (centres undefined)	–	> 100	–	> 100	–	> 100	–	–	–	> 100	–	> 100	–	> 100	–	> 100	–	> 100	–	> 100
CC(=O)OC12c3ccccc3C1CCCCCC21OCCCO1 (centres undefined)	–	> 100	–	> 100	–	> 100	–	> 100	–	> 100	–	> 100	–	–	–	> 100	–	> 100	–	> 100
N=C(c1ccccc1)N(O)C1CCCCC1	–	–	–	> 100	–	> 100	–	> 100	–	> 100	–	–	–	> 100	–	> 100	–	–	–	> 100
O=c1ccccc2cccc(O)c12	–	> 100	–	> 100	–	–	–	> 100	–	> 100	–	> 100	–	–	–	> 100	–	> 100	–	–
O=C(COc1cccc(/C=C2\COc3ccccc3C2=O)c1)Nc1nccs1	1.69	3.76	1.73	3.26	1.88	5.05	–	–	1.76	3.15	1.44	29.2	1.82	3.49	1.95	3.94	–	–	1.71	3.15
O=c1cc(Cl)nc[nH]1	–	> 100	–	> 100	–	> 100	–	–	–	> 100	–	> 100	–	> 100	–	> 100	–	> 100	–	> 100
O=C(OCCOCBr)c1ccccc1	–	> 100	–	> 100	–	> 100	–	–	–	> 100	–	> 100	–	> 100	–	> 100	–	> 100	–	> 100
CC(=O)/C=C/C1=C(c2cc3ccccc3s2)c2ccccc2CC1	16.7	34.2	37	> 100	20	42.2	24.9	57.2	20.7	65.1	15.2	> 100	26.6	58.4	–	–	27.4	> 100	18.5	42.2
